Experimental data taken from US5620864A, “Acceptor for fucosyl transferase” (Health Research, Inc., priority 1992, dated 1997).
“And” between values parts separate entries of the source, which are not always exact repeats. Equal entries are not always repeated.

Test system: α1,3-L-fucosyltransferase of the soluble fraction of human ovarian tumor
Assay: Assay of α1,3-fucosyltransferase with synthetic acceptors, partially purified enzyme of ovarian tumor soluble fraction
Format: biochemical
Settings: for [14C] Fucose Incorporated (CPM): acceptor 3.0 mM, 37° C. 18 h
Method: An incubation mixture contained 50 mM HEPES-NaOH, pH 7.5, 5 mM MnC12, 7 mM ATP, 3 mM NaN3, the acceptor 0.3 mM (for serum enzyme) or 3.0 mM (for tumor enzyme), 0.125 μCi of GDP-[U-^14 C] Fuc (Sp. Act. 216 mCi/mmol) and enzyme in a total volume of 0.10 ml; the control incubation mixture had everything except the acceptor. At the end of incubation at 37° C. for 18 h, the mixture was diluted with 1 ml water and passed through Dowex-1-C1 column (1 ml in a Pasteur pipet). The column was washed twice with 1 ml water; the breakthrough and wash, which contained the [^14 C] fucosylated neutral acceptor, were collected together in a scintillation vial and counted for radioactivity using the scintillation coctail 3a70 (Research Products International, Mount Prospects, Ill.) and Beckman LS9000. The Dowex column was then eluted successively with 3 ml each of 0.1M and 0.2M NaCl; these eluates which contained the [^14 C] fucosylated sulfated acceptors, were counted for radioactivity as before. Corrections were made by subtracting the radioactivity in the water and NaCl eluates of the control incubation mixture from the corresponding test fractions. The duplicate runs of samples gave almost identical values, the difference being <5%.
As shown in the scheme set forth in FIG. 2, the α-L-fucosidase-free extract of the tissue (40 g), after concentration by 80% (NH4)2 SO4 precipitation was fractionated on bovine IgG glycopep-Sepharose in batches of 25 ml. After washing the column with the equilibration buffer, the bound enzyme was eluted with 1 M NaCl in the same buffer. The protein positive fractions were pooled and processed as shown in the scheme 2.0 ml of the above preparation was loaded on a Sephacryl S-200 column (Superfine:2.6 cm×88.0 cm) equilibrated at 4° C. with 50 mM Tris-HC1, pH 7.0 containing 0.15M NaCl and 0.1% Triton X-100 and eluted with the same buffer. Fractions of 3.0 ml were collected. The fucosyltransferase activity was located in the effluent fractions, by assaying first every 5th fraction and then obtaining the activity profile by assaying the alternate fractions in that range, using 2'-fucosyl LacNAc as the acceptor. […] Its elution position, which is slightly later than BSA, run separately on the same column, indicates its molecular weight as <67,000 daltons. […] The enzyme has been purified 66 fold over the soluble extract with a recovery of 6.2%. The enzyme at this stage lost its activity either kept frozen at -20° C. or left at 4° C. for more than a week. However, the enzyme at the end of the previous step was fairly stable for at least two months at 4° C. So this preparation of enzyme was used in acceptor ability comparison studies.
When α1,3-fucosyltransferase activity of the partially purified enzyme preparation from the soluble portion of ovarian tumor was measured and compared with the activity of other acceptors, the following results were obtained. 2'-methyl LacNAc, LacNAc and Galβ1, 3GlcNAc were respectively 100.0%, 60.6% and 565.5% active, indicating the presence of both α1,3 and α1,4 fucosyltransferase activities in this preparation.

## CC(=O)N[C@H]1C(O)O[C@H](CO)[C@@H](O[C@@H]2O[C@H](CO)[C@H](O)[C@H](OS(=O)(=O)O)[C@H]2O)[C@@H]1O (stereo partly drawn) [3'-Sulfo-LacNAc, SODIUM β-D-GALACTOPYRANOSYL 3-SULFATE-(1→4)-2-ACETAMIDO-2-DEOXY-D-GLUCOPYRANOSE]
2'-methyl LacNAc = 100
  Relative Percent: 447.1%
2'-methyl LacNAc = 100, listed as 3'-Sulfo LacNAc
  Relative Percent: 447%
2'-methyl LacNAc = 100, listed as 3'-sulfo LacNAc
  Relative Percent: 447% and 447.1%
  [14C] Fucose Incorporated (CPM): 33049 CPM

## CO[C@H]1[C@H](O[C@H]2[C@H](O)[C@@H](NC(C)=O)C(O)O[C@@H]2CO)O[C@H](CO)[C@H](O)[C@@H]1O (stereo partly drawn) [2'-methyl LacNAc]
2'-methyl LacNAc = 100
  Relative Percent: 100%
  [14C] Fucose Incorporated (CPM): 7392 CPM
